# Assay results reported in patent US20110151474A1, “METHOD OF ESTIMATING THE RISK OF EXPRESSION OF ADVERSE DRUG REACTION CAUSED BY THE ADMINISTRATION OF A COMPOUND, WHICH IS EITHER METABOLIZED PER SE BY UGT1A1 ENZYME OR WHOSE METABOLIC INTERMEDIATE IS METABOLIZED BY THE ENZYME” (DAIICHI PURE CHEMICALS CO ., LTD, priority 2000, published 2011).
# How the values were obtained:
# [1] = Retrospective review of adverse drug reaction (leukopenia, diarrhea, severe toxicity) in patients given irinotecan chemotherapy, correlated with UGT1A1 genotype; type: in vivo, Japanese patients; details: for odds ratio of severe toxicity: logistic regression
# Text: The subjects were Japanese patients who had received irinotecan administration in their chemotherapies from July 1994 to June 1999. For confirming the security of the patients, each patient was primarily ensured to have an adequate bone marrow function before the use of irinotecan: a leukocyte count of 3×10^9/liter or more, and a platelet count of 100×10^9/Iiter or more. In addition, the patients who had evidence of watery diarrhea, paralytic ileus, pulmonary interstitial pneumonia or fibrosis, massive ascites or pleural effusion, apparent jaundice, or anamnesis of hypersensitivity to irinotecan were excluded from the irinotecan use. As a result, 118 patients were used as a subject of this Example.
# For confirming the adaptability to irinotecan, the complete blood count, platelet count and serum chemistry were assessed at least once a week. And bilirubin levels were always measured.
# We retrospectively reviewed the clinical records including patients' characteristics (e.g. age, gender and the like), the dosage and schedule of irinotecan administration, the record of use of other drugs or radiotherapy, and observed adverse drug reaction caused by irinotecan (infusion). We counted the number of days when the patients received granulocyte colony stimulating factors (G-CSFs) or loperamide hydrochloride, the latter of which is commonly prescribed for irinotecan-induced diarrhea in Japan. Prophylactic administration of G-CSF prevented the apparent onset of neutropenia. Since the dose limiting toxicity of irinotecan is known to result in leukopenia and diarrhea, we defined as “severe toxicity” as leukopenia of grade 4 (0.9×10^9/liter) and the diarrhea of grade 3 or worse (grade 3 is for the watery diarrhea for 5 days or more; grade 4, the diarrhea with hemorrhagic or dehydration as classified in accordance with the Japan Society for Cancer Therapy criteria). No other adverse drug reactions were included in this example because they would be influenced by miscellaneous patients' backgrounds. The Serum total bilirubin levels were recorded with the scores just prior to irinotecan administration along with the highest of those after initiation of the therapy.
# Blood was sampled from each patient (118 samples) and their genotypes were analyzed after irinotecan administration in each patient. […]
# We analyzed the following variant sequences for each genomic DNA (see Fig. I): a two-extra-nucleotide (TA) insertion within the TATA box resulting in the sequence (TA)7TAA at positions −39 to −53, whose type is referred to as UGT1A1 *28; (Monaghan, G., Ryan, M., Seddon, R., Hume, R., and Burchell, B., Lancet, 347: 578-581, 1996, Bosma, P. J. et al., N. Engi. J. Med., 333: 1171-1175, 1995); a transition at codon 71 in exon I (from (G) to (A) at +211 locating in the downstream region from the initial site of the transcription) that changes glycine to arginine (represented by G71 R, whose type is referred to as UGT1A1*6); a transversion at codon 229 in exon I that alters proline to glutamine (represented by P229Q, whose type is referred to as UGT1A1*27); a trarisversion at codon 367 from (C) to (G) at position +1099 in exon 4 that converts arginine to glycine (represented by R367G, whose type is referred to as UGT1A1*29); and a transversion (+1456, T to G) at codon 486 in exon 5 that transforms tyrosine (Y) into aspartic acid (D) (represented by Y486D, whose type is referred to as UGTIA1*7). […]
# [2] = out of 1245 patients during period of clinical trials; cited from earlier work
smiles,measurement,setting,value
CCc1c2c(nc3ccc(OC(=O)N4CCC(N5CCCCC5)CC4)cc13)-c1cc3c(c(=O)n1C2)COC(=O)[C@]3(O)CC [irinotecan],odds ratio of severe toxicity,"[1]; UGT1A1*6, 95% CI 0.15-1.61, P>0.2",0.55
same,patients who experienced severe toxicity,[1]; all patients heterozygous for UGT1A1*27,3 patients
same,odds ratio of severe toxicity,"[1]; genotype heterozygous or homozygous for UGT1A1*28, 95% CI 1.98-13.96, P<0.001",5.21
same,patients who experienced severe toxicity (leukopenia grade 4 and/or diarrhea grade 3 or worse),"[1]; of 118 patients given irinotecan, 92 did not",26 patients
same,increase of severe toxicity of irinotecan,"[1]; possession of UGT1A1*28, multiple logistic regression with gender and chemotherapy regimen (FIG. 5)",7 fold
same,deaths attributed to adverse drug reactions,[2],55 patients
